Reference: patent US20250129055A1, “GLUCOSIDE DERIVATIVE, AND PREPARATION METHOD THEREFOR AND APPLICATION THEREOF” (BEIJING INCREASE INNOVATIVE DRUG CO., LTD., priority 2020, published 2025)

System: Alloxan diabetic mice
Assay: Efficacy in Alloxan diabetes model mice
Assay type: in vivo
Conditions: for HbA1c: 32nd day; for Concentration of blood glucose 1 h: 1 h after administration; for Concentration of blood glucose 2 h: 2 h after administration; for Concentration of blood glucose 4 h: 4 h after administration; for Concentration of blood glucose 8 h: 8 h after administration; for Concentration of blood glucose 24 h: 24 h after administration; for Concentration of blood glucose 0 h: before administration; for Concentration of blood glucose (random): random blood glucose on the 28th day
Experimental: Test Example 3 Research on efficacy of the compounds of the present invention in in vivo anti-Alloxan diabetes model mice
Alloxan diabetes mice were used. Normal ICR mice (male, 22-24 g) were randomly divided into groups including normal group, model group (con), positive control group and test compound groups with four different doses (n=11), and the mice without injection of Alloxan were in a normal control group (n=10).
Mice were administered with drugs by gavage.
Single administration: Mice were fasted for 3 h, and then the fasting blood (0 min) was collected. Then the mice in each group were administered with drugs by gavage. After 1 h, they were administered with a glucose ([…]) solution. Blood was collected at 30 min, 60 min, 120 min, and 180 min after the glucose administration. The blood glucose level was measured using glucose oxidase-peroxidase method, and the area under the blood glucose curve was calculated.
On the 6th day of continuous administration, under the condition of no fasting, blood samples were collected from mice before administration (0 h), 1 h, 2 h, 4 h, 8 h and 24 h after administration to measure blood glucose.
On the 9th day of continuous administration, the mice were fasted for 1 h and then administered with drugs by gavage. An oral glucose tolerance test (OGTT) was performed 1 h after administration.
On the 16th day of continuous administration, under the condition of no fasting, urine samples were collected from mice 1 h after administration to measure the concentration of urine glucose.
On the 22nd day of continuous administration, the mice were fasted for 1 h and then administered with drugs by gavage, and blood samples were collected to measure the fasting blood glucose 1 h after administration.
On the 28th day of continuous administration, under the condition of no fasting, blood samples were collected from mice 1 h after administration to measure the random blood glucose.
On the 32nd day of continuous administration, under the condition of no fasting, blood samples were collected from mice to measure glycosylated hemoglobin (HbA1c).
The data were expressed as mean±SEM (n=10-11). The comparison between multiple groups was performed by one-way analysis of variance, and the comparison between two groups was performed by Dunnett's t test. Statistical graphing was performed using Graphpad Prism software.

[1] = 0.25 mg/kg, OGTT on the 9th day
[2] = 0.25 mg/kg, non-fasting, 6th day
[3] = 0.5 mg/kg, non-fasting, 6th day

SMILES: CS[C@H]1O[C@@H](c2ccc(C)c(Cc3ccc4c(c3)OCCO4)c2)[C@H](O)[C@@H](O)[C@@H]1O (stereo in doubt) [Compound 2, 2-[3-(2,3-dihydro-1,4-benzodioxin-6-ylmethyl)-4-methylphenyl]-6-(methylthio)oxane-3,4,5-triol]
- Concentration of fasting blood glucose, the 9th day (0.25 mg/kg): 307.7 ± 23.1 mg/dL
- Concentration of fasting blood glucose, the 22nd day (0.25 mg/kg): 305.6 ± 16.5 mg/dL
- HbA1c (0.25 mg/kg): 7.2 ± 0.4%
- AUC of blood glucose [1]: 541.5 ± 22.8 mg·h/dL
- Concentration of blood glucose 0 min [1]: 307.7 ± 23.1 mg/dL
- Concentration of blood glucose 30 min [1]: 303.0 ± 8.6 mg/dL
- Concentration of blood glucose 60 min [1]: 268.5 ± 13.5 mg/dL
- Concentration of blood glucose 120 min [1]: 223.4 ± 11.6 mg/dL
- AUC of blood glucose (0.25 mg/kg, non-fasting, 6th day, 0-24 h): 12051 ± 437.8 mg·h/dL
- Concentration of blood glucose 1 h [2]: 458.4 ± 25.2 mg/dL
- Concentration of blood glucose 2 h [2]: 430.7 ± 31.3 mg/dL
- Concentration of blood glucose 4 h [2]: 404.3 ± 33.8 mg/dL
- Concentration of blood glucose 8 h [2]: 478.2 ± 23.3 mg/dL
- Concentration of blood glucose 24 h [2]: 585.3 ± 17.9 mg/dL
- Concentration of blood glucose 0 h [2]: 540.1 ± 20.1 mg/dL
- Concentration of blood glucose (random) (0.25 mg/kg): 491.1 ± 26.5 mg/dL
- Concentration of fasting blood glucose, the 9th day (0.5 mg/kg): 249.7 ± 14.7 mg/dL
- Concentration of fasting blood glucose, the 22nd day (0.5 mg/kg): 236.0 ± 13.7 mg/dL
- HbA1c (0.5 mg/kg): 6.1 ± 0.4 %
- AUC of blood glucose (0.5 mg/kg, OGTT on the 9th day): 468.3 ± 18.1 mg·h/dL
- Concentration of blood glucose 0 min (0.5 mg/kg, OGTT on the 9th day): 249.7 ± 14.7 mg/dL
- Concentration of blood glucose 30 min (0.5 mg/kg, OGTT on the 9th day): 290.3 ± 13.0 mg/dL
- Concentration of blood glucose 60 min (0.5 mg/kg, OGTT on the 9th day): 231.0 ± 10.1 mg/dL
- Concentration of blood glucose 120 min (0.5 mg/kg, OGTT on the 9th day): 175.0 ± 12.0 mg/dL
- AUC of blood glucose (0.5 mg/kg, non-fasting, 6th day, 0-24 h): 12059 ± 372.3 mg·h/dL
- Concentration of blood glucose 1 h [3]: 488.6 ± 15.9 mg/dL
- Concentration of blood glucose 2 h [3]: 474.7 ± 18.1 mg/dL
- Concentration of blood glucose 4 h [3]: 386.0 ± 21.8 mg/dL
- Concentration of blood glucose 8 h [3]: 473.9 ± 28.2 mg/dL
- Concentration of blood glucose 24 h [3]: 585.6 ± 15.0 mg/dL
- Concentration of blood glucose 0 h [3]: 551.9 ± 18.2 mg/dL
- Concentration of blood glucose (random) (0.5 mg/kg): 437.9 ± 23.9 mg/dL
- Concentration of fasting blood glucose, the 9th day (1.0 mg/kg): 201.2 ± 11.4 mg/dL
- Concentration of fasting blood glucose, the 22nd day (1.0 mg/kg): 224.4 ± 17.6 mg/dL
- HbA1c (1.0 mg/kg): 5.9 ± 0.6 %
- AUC of blood glucose (1.0 mg/kg, OGTT on the 9th day): 410.6 ± 15.6 mg·h/dL
- Concentration of blood glucose 0 min (1.0 mg/kg, OGTT on the 9th day): 201.2 ± 11.4 mg/dL
- Concentration of blood glucose 30 min (1.0 mg/kg, OGTT on the 9th day): 253.9 ± 7.7 mg/dL
